According to publication PMC2859942 (PLoS ONE, 2010):

How the values were obtained:
[1] = test system: recombinant viruses (patient IN amplicons in pHXB2-ΔIN backbone) in MT4-LTR-eGFP cells; assay: Drug susceptibility testing of replication-competent recombinant viruses (phenotypic sensitivity, eGFP readout); type: cell-based, HIV-1; settings: for EVG FC (elvitegravir sensitivity fold-change in IC50): vs IIIB HIV-1 wild-type reference
[2] = test system: IN WT, IN Y143C and IN Y143R; type: biochemical, HIV-1; settings: strand transfer observed in the 3′end processing assay, uncleaved substrate, three enzymes
[3] = samples with the Y143C/H/R mutations

SMILES | EVG FC (elvitegravir sensitivity fold-change in IC50) ([1]; patient 1, D0, integrase mutations V72I I203M) | EVG FC (elvitegravir sensitivity fold-change in IC50) ([1]; patient 1, M3 on RAL, V72I L74L/M T97A/T Y143C I203M) | EVG FC (elvitegravir sensitivity fold-change in IC50) ([1]; patient 1, M9 (RAL removed after month 6), V72I I203M) | EVG FC (elvitegravir sensitivity fold-change in IC50) ([1]; patient 1, M12 (RAL removed after month 6), V72I I203M) | EVG FC (elvitegravir sensitivity fold-change in IC50) ([1]; patient 2, D0, V151I/V) | EVG FC (elvitegravir sensitivity fold-change in IC50) ([1]; patient 2, M3 on RAL, N155N/H) | EVG FC (elvitegravir sensitivity fold-change in IC50) ([1]; patient 2, M6 on RAL, T97A/T G163G/R Y143Y/C/H/R) | EVG FC (elvitegravir sensitivity fold-change in IC50) ([1]; patient 2, M9 on RAL, T97A/T G163G/R Y143Y/C/H/R) | EVG FC (elvitegravir sensitivity fold-change in IC50) ([1]; patient 3, D0, V72I) | EVG FC (elvitegravir sensitivity fold-change in IC50) ([1]; patient 3, M6 on RAL, V72I T97A/T Y143C/H/R/Y) | EVG FC (elvitegravir sensitivity fold-change in IC50) ([1]; patient 3, M12 on RAL, V72I T97A/T Y143C/H/R/Y) | median EVG FC [1, 3] | range of EVG FC [1, 3] | concentration of drug for complete inhibition of ST [2] | median RAL FC [1, 3] | range of RAL FC [1, 3]
COc1cc2c(cc1Cc1cccc(Cl)c1F)c(=O)c(C(=O)O)cn2[C@H](CO)C(C)C [EVG, elvitegravir] | 0.89 | 1.56 | 0.83 | 1.43 | 0.94 | 6.05 | 6.23 | 2.68 | 0.60 | 3 | 9.57 | 3 | 1.56–9.57 | – | – | –
Cc1nnc(C(=O)NC(C)(C)c2nc(C(=O)NCc3ccc(F)cc3)c(O)c(=O)n2C)o1 [RAL, raltegravir] | – | – | – | – | – | – | – | – | – | – | – | – | – | 0.4 µM | 24.83 | 5.87–51.95
